This note sets out measurements from patent US20230364194A1, “GLP-1R/GCGR Dual Target Agonist Polypeptide Derivative for Treatment of Hepatic Fibrosis Associated with Viral Hepatitis” (Shenzhen Turier Biotech. Co., Ltd., priority 2020, published 2023).

The subject of this assay is Hepatic stellate cell strain LX-2. Put plainly: In vitro effect on expression of LX-2 cell activation marker α-SMA (Western Blot, β-actin reference). It is filed as cell-based. As to conditions: LX-2 cells, 10.0 uM, 48 hours, negative control = 100%. The text has this:
Hepatic stellate cell strain LX-2 (from China Center for Type Culture Collection, Shanghai) was selected to study and observe the effects of polypeptide compounds 1-25 on the expression level of LX-2 cell activation marker α-smooth muscle actin (α-SMA). The control group was given the same volume of Dulbecco’s modified Eagle medium (DMEM) (from Gibco, United States), and β-actin (from TransGen Biotech) as the endogenous reference, wherein, α-SMA is a symbolic feature that distinguishes […] from myofibroblasts.
Hepatic stellate cell LX-2 was laid on 35 mm cell culture plate, cultured with DMEM (high glucose)+10% FBS+1% double-antibody culture medium (Thermo Fisher), placed overnight when the cells grew to 70% convergence at 37° C. under the condition of 5% CO2 without serum, and treated with the above GLP-1R/GCGR dual target agonist polypeptide derivatives (namely, polypeptide compounds 1-25) (dissolved in PBS) for 48 hours from the next morning to extract cell protein, and then Western Blot was performed with β-actin as endogenous reference to analyze the expression levels of α-SMA and β-actin by gray-scale analysis using Image J 1.50i. PBS with the same volume as that in experimental group was added in negative control.
The above polypeptide compounds 1-25 with a concentration of 10.0 µM were added, showing that they could reduce the expression of α-SMA at the concentration of 10.0 µM; and the negative control had no effect on the expression of α-SMA (referring to Table 2).
The integrated gray scale of α-SMA/β-actin in the negative control group was considered to be 100% to analyze the in vitro inhibitory activity on hepatic fibrosis by tested polypeptides.
(In general: Immunoblotting shows a protein as a band on a membrane.)

Starred links: 1 amine or outer side, 2 acyl side, 3 side chain; linkers in the order of their positions; H or OH if unused. Non-standard residues stand in square brackets, D forms with d. Groups on a side chain read outwards from the residue. Primed or numbered codes have the meaning given here. No end group written: not given here. *: point of attachment. C18 diacid = O=C(O)CCCCCCCCCCCCCCCCC(=O)*; C16 diacid = O=C(O)CCCCCCCCCCCCCCC(=O)*; γGlu = O=C(O)[C@H](CCC(=O)[*:2])N[*:1]; Stearoyl = CCCCCCCCCCCCCCCCCC(=O)*; Palmitoyl = CCCCCCCCCCCCCCCC(=O)*; PEG2′ = not defined here; Aib = CC(C)(N)C(=O)O

Take “His-(D-Ser)-Gln-Gly-Thr-Phe-Thr-Ser-Asp-Tyr-Ser-Lys-Tyr-Leu-Asp-Lys(PEG2-PEG2-γGlu-CO(CH2)14CH3)-Arg-Arg-Ala- Gln-Asp-Phe-Val-Gln-Trp-Leu-Met-Asn-Thr-Gly-Gly-Pro-Ser-Ser-Gly-Ala-Pro-Pro-Pro-Ser-NH2 (H[dS]QGTFTSDYSKYLDK([PEG2′-PEG2′-γGlu-Palmitoyl])RRAQDFVQWLMNTGGPSSGAPPPS-NH2) [Compound 1]”: the “Relative expression of α-SMA (α-SMA/β-actin, %)” value was 57.59%.

Consider “His-(D-Ser)-Gln-Gly-Thr-Phe-Thr-Ser-Asp-Tyr-Ser-Lys-Tyr-Leu-Asp-Lys(PEG2-PEG2-γGlu-CO(CH2)16CO2H)-Arg-Arg- Ala-Gln-Asp-Phe-Val-Gln-Trp-Leu-Met-Asn-Thr-Gly-Gly-Pro-Ser-Ser-Gly-Ala-Pro-Pro-Pro-Ser-NH2 (H[dS]QGTFTSDYSKYLDK([PEG2′-PEG2′-γGlu-C18 diacid])RRAQDFVQWLMNTGGPSSGAPPPS-NH2) [Compound 17]”, for which the “Relative expression of α-SMA (α-SMA/β-actin, %)” value worked out at 38.78%.

For “His-(D-Ser)-Gln-Gly-Thr-Phe-Thr-Ser-Asp-Tyr-Ser-Lys-Tyr-Leu-Asp-Glu-Lys-Ala-Ala-Lys(PEG2-PEG2-γGlu- CO(CH2)16CO2H)-Glu-Phe-Ile-Glu-Trp-Leu-Leu-Arg-Thr-Gly- Gly-Pro-Ser-Ser-Gly-Ala-Pro-Pro-Pro-Ser-NH2 (H[dS]QGTFTSDYSKYLDEKAAK([PEG2′-PEG2′-γGlu-C18 diacid])EFIEWLLRTGGPSSGAPPPS-NH2) [Compound 8]”, the “Relative expression of α-SMA (α-SMA/β-actin, %)” value is 39.92%.

In the case of “His-(D-Ser)-Gln-Gly-Thr-Phe-Thr-Ser-Asp-Tyr-Ser-Lys-Tyr-Leu-Asp-Glu-Lys-Ala-Ala-Lys(PEG2-PEG2-γGlu-CO(CH2)14CO2H)-Glu-Phe-Ile-Glu-Trp-Leu-Leu-Asn-Gly- Gly-Gly-Pro-Ser-Ser-Gly-Ala-Pro-Pro-Pro-Ser-NH2 (H[dS]QGTFTSDYSKYLDEKAAK([PEG2′-PEG2′-γGlu-C16 diacid])EFIEWLLNGGGPSSGAPPPS-NH2) [Compound 13]”, the “Relative expression of α-SMA (α-SMA/β-actin, %)” value turned out to be 40.46%.

For the substance “His-Aib-Gln-Gly-Thr-Phe-Thr-Ser-Asp-Lys(PEG2-PEG2-yGlu- CO(CH2)16CH3)-Ser-Lys-Tyr-Leu-Asp-Glu-Arg-Arg-Ala-Gln- Asp-Phe-Val-Gln-Trp-Leu-Leu-Asp-Gly-Gly-Pro-Ser-Ser-Gly-Ala-Pro-Pro-Pro-Ser-NH2 (H[Aib]QGTFTSDK([PEG2′-PEG2′-γGlu-Stearoyl])SKYLDERRAQDFVQWLLDGGPSSGAPPPS-NH2) [Compound 4]”, the “Relative expression of α-SMA (α-SMA/β-actin, %)” value is reported as 40.19%.

Regarding “His-(D-Ser)-Gln-Gly-Thr-Phe-Thr-Ser-Asp-Tyr-Ser-Lys-Tyr-Leu-Asp-Lys(PEG2-PEG2-yGlu-CO(CH2)16CO2H)-Arg-Arg- Ala-Gln-Asp-Phe-Val-Gln-Trp-Leu-Nle-Asn-Thr-Gly-Gly-Pro-Ser -Ser-Gly-Ala-Pro-Pro-Pro-Ser-NH2 (HXQGTFTSDYSKYLDKRRAQDFVQWLXNTGGPSSGAPPPS; D-Ser; Nle; PEG2-PEG2-γGlu-C18 diacid lipidation; C-terminal amide; (2)..(2) Xaa=D-Ser; (16)..(16) A side chain of Lys is linked to -PEG2-PEG2-AGlu-CO(CH2)16CO2H; (27)..(27) Xaa=Nle) [Compound 21]”, the “Relative expression of α-SMA (α-SMA/β-actin, %)” value turned out to be 43.39%.

Regarding “His-(D-Ser)-Gln-Gly-Thr-Phe-Thr-Ser-Asp-Tyr-Ser-Lys-Tyr-Leu-Asp-Lys(PEG2-PEG2-yGlu-CO(CH2)16CO2H)-Arg-Arg- Ala-Gln-Asp-Phe-Val-Gln-Trp-Leu-Leu-Asn-Thr-Gly-Gly-Pro-Ser -Ser-Gly-Ala-Pro-Pro-Pro-Ser-NH2 (H[dS]QGTFTSDYSKYLDK([PEG2′-PEG2′-γGlu-C18 diacid])RRAQDFVQWLLNTGGPSSGAPPPS-NH2) [Compound 22]”, the “Relative expression of α-SMA (α-SMA/β-actin, %)” value is 48.76%.

For “His-(D-Ser)-Gln-Gly-Thr-Phe-Thr-Ser-Asp-Tyr-Ser-Lys-Tyr-Leu-Asp-Lys-Lys(PEG2-PEG2-γGlu-CO(CH2)16CO2H)-Ala- Ala-His-Asp-Phe-Val-Glu-Trp-Leu-Leu-Arg-Thr-Gly-Gly-Pro-Ser-Ser-Gly-Ala-Pro-Pro-Pro-Ser-NH2 [Compound 7]”, the “Relative expression of α-SMA (α-SMA/β-actin, %)” value is on record as 46.53%.

Consider “His-(D-Ser)-Gln-Gly-Thr-Phe-Thr-Ser-Asp-Tyr-Ser-Lys-Tyr-Leu-Asp-Lys(PEG2-PEG2-CO(CH2)16CO2H)-Arg-Arg-Ala- Gln-Asp-Phe-Val-Gln-Trp-Leu-Met-Asn-Thr-Gly-Gly-Pro-Ser-Ser-Gly-Ala-Pro-Pro-Pro-Ser-NH2 (H[dS]QGTFTSDYSKYLDK([PEG2′-PEG2′-C18 diacid])RRAQDFVQWLMNTGGPSSGAPPPS-NH2) [Compound 18]”, for which the “Relative expression of α-SMA (α-SMA/β-actin, %)” value was determined as 45.95%.

“His-(D-Ser)-Gln-Gly-Thr-Phe-Thr-Ser-Asp-Tyr-Ser-Lys-Tyr-Leu-Asp-Glu-Lys-Ala-Ala-Lys(PEG2-PEG2-yGlu- CO(CH2)16CO2H)-Glu-Phe-Ile-Glu-Trp-Leu-Leu-Asn-Gly- Gly-Gly-Pro-Ser-Ser-Gly-Ala-Pro-Pro-Pro-Ser-NH2 (H[dS]QGTFTSDYSKYLDEKAAK([PEG2′-PEG2′-γGlu-C18 diacid])EFIEWLLNGGGPSSGAPPPS-NH2) [Compound 12]”: the “Relative expression of α-SMA (α-SMA/β-actin, %)” value was found to be 41.99%.

As for “His-(D-Ser)-Gln-Gly-Thr-Phe-Thr-Ser-Asp-Tyr-Ser-Lys-Tyr-Leu-Asp-Glu-Lys(PEG2-PEG2-γGlu-CO(CH2)16CO2H)-Ala- Ala-His-Asp-Phe-Val-Glu-Trp-Leu-Leu-Asn-Gly-Gly-Gly-Pro-Ser-Ser-Gly-Ala-Pro-Pro-Pro-Ser-NH2 (H[dS]QGTFTSDYSKYLDEK([PEG2′-PEG2′-γGlu-C18 diacid])AAHDFVEWLLNGGGPSSGAPPPS-NH2) [Compound 9]”, the “Relative expression of α-SMA (α-SMA/β-actin, %)” value was 40.89%.

On to “His-(D-Ser)-Gln-Gly-Thr-Phe-Thr-Ser-Asp-Tyr-Ser-Lys-Tyr-Leu-Asp-Lys(PEG2-PEG2-CO(CH2)16CO2H)-Arg-Arg-Ala- Gln-Asp-Phe-Val-Gln-Trp-Leu-Nle-Asn-Thr-Gly-Gly-Pro-Ser-Ser-Gly-Ala-Pro-Pro-Pro-Ser-NH2 (HXQGTFTSDYSKYLDKRRAQDFVQWLXNTGGPSSGAPPPS; D-Ser; Nle; PEG2-PEG2-C18 diacid lipidation; C-terminal amide; (2)..(2) Xaa=D-Ser; (16)..(16) A side chain of Lys is linked to -PEG2-PEG2-CO(CH2)16CO2H; (27)..(27) Xaa=Nle) [Compound 24]”, for which the “Relative expression of α-SMA (α-SMA/β-actin, %)” value was found to be 52.65%.

For “His-(D-Ser)-Gln-Gly-Thr-Phe-Thr-Ser-Asp-Tyr-Ser-Lys-Tyr-Leu-Asp-Glu-Lys-Ala-Ala-Lys(PEG2-PEG2-γGlu- CO(CH2)14C3)-Glu-Phe-Ile-Glu-Trp-Leu-Leu-Arg-Gly-Gly- Gly-Pro-Ser-Ser-Gly-Ala-Pro-Pro-Pro-Ser-NH2 (H[dS]QGTFTSDYSKYLDEKAAK([PEG2′-PEG2′-γGlu-Palmitoyl])EFIEWLLRGGGPSSGAPPPS-NH2) [Compound 10]”, the “Relative expression of α-SMA (α-SMA/β-actin, %)” value is 46.35%.

In the case of “His-Aib-Gln-Gly-Thr-Phe-Thr-Ser-Asp-Lys(PEG2-PEG2-yGlu- CO(CH2)14CH3)-Ser-Lys-Tyr-Leu-Asp-Glu-Arg-Arg-Ala-Gln- Asp-Phe-Val-Gln-Trp-Leu-Leu-Asp-Gly-Gly-Gly-Pro-Ser-Ser-Gly-Ala-Pro-Pro-Pro-Ser-NH2 (H[Aib]QGTFTSDK([PEG2′-PEG2′-γGlu-Palmitoyl])SKYLDERRAQDFVQWLLDGGGPSSGAPPPS-NH2) [Compound 6]”, the “Relative expression of α-SMA (α-SMA/β-actin, %)” value came to 42.34%.

In the case of “His-(D-Ser)-Gln-Gly-Thr-Phe-Thr-Ser-Asp-Tyr-Ser-Lys-Tyr-Leu-Asp-Lys(PEG2-PEG2-γGlu-CO(CH2)16CH3)-Arg-Arg-Ala- Gln-Asp-Phe-Val-Gln-Trp-Leu-Met-Asn-Thr-Gly-Gly-Pro-Ser-Ser-Gly-Ala-Pro-Pro-Pro-Ser-NH2 (H[dS]QGTFTSDYSKYLDK([PEG2′-PEG2′-γGlu-Stearoyl])RRAQDFVQWLMNTGGPSSGAPPPS-NH2) [Compound 19]”, the “Relative expression of α-SMA (α-SMA/β-actin, %)” value came out at 44.78%.

With “His-(D-Ser)-Gln-Gly-Thr-Phe-Thr-Ser-Asp-Tyr-Ser-Lys-Tyr-Leu-Asp-Lys-Lys(PEG2-PEG2-γGlu-CO(CH2)14CH3)-Arg-Ala- Gln-Asp-Phe-Val-Gln-Trp-Leu-Met-Asn-Thr-Gly-Gly-Pro-Ser-Ser-Gly-Ala-Pro-Pro-Pro-Ser-NH2 (H[dS]QGTFTSDYSKYLDKK([PEG2′-PEG2′-γGlu-Palmitoyl])RAQDFVQWLMNTGGPSSGAPPPS-NH2) [Compound 16]”, the “Relative expression of α-SMA (α-SMA/β-actin, %)” value worked out at 40.86%.

As to “His-Aib-Gln-Gly-Thr-Phe-Thr-Ser-Asp-Lys(PEG2-PEG2-γGlu- CO(CH2)14CO2H)-Ser-Lys-Tyr-Leu-Asp-Glu-Arg-Arg-Ala- Gln-Asp-Phe-Val-Gln-Trp-Leu-Leu-Asp-Gly-Gly-Gly-Pro-Ser-Ser-Gly-Ala-Pro-Pro-Pro-Ser-NH2 (H[Aib]QGTFTSDK([PEG2′-PEG2′-γGlu-C16 diacid])SKYLDERRAQDFVQWLLDGGGPSSGAPPPS-NH2) [Compound 3]”, the “Relative expression of α-SMA (α-SMA/β-actin, %)” value worked out at 45.28%.
